Data reported in ChEMBL document CHEMBL3132769, “Fragment growing to retain or alter the selectivity of anchored kinase hinge-binding fragments” (Medchemcomm, 2014).

How the values were obtained:
[1] = target: Platelet-derived growth factor receptor alpha (Homo sapiens) (UniProt P16234); assay: Inhibition of human PDGFR alpha catalytic domain expressed in baculovirus assessed as substrate phosphorylation using fluorescence-labelled peptides as substrate at 0.2 uM after 90 mins by microfluidic peptide phosphorylation assay
[2] = target: T1, Serine/threonine-protein kinase Nek2 (Homo sapiens) (UniProt P51955); assay: Inhibition of human full length NEK2 expressed in baculovirus assessed as substrate phosphorylation using fluorescence-labelled peptides as substrate at 0.2 uM after 90 mins by microfluidic peptide phosphorylation assay
T1 sequence (whole entry): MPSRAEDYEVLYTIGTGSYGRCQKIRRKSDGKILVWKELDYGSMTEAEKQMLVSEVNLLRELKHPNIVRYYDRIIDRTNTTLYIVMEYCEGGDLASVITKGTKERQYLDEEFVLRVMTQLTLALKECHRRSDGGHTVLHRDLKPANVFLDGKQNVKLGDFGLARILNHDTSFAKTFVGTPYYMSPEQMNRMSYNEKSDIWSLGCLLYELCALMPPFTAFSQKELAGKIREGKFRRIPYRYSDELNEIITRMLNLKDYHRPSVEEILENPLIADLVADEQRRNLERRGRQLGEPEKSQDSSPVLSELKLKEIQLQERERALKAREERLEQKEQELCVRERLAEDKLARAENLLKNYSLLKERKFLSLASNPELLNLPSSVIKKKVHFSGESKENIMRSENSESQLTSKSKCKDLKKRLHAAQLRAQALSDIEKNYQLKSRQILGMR

[3] = target: Protein kinase C alpha type (Homo sapiens) (UniProt P17252); assay: Inhibition of human truncated PKC alpha expressed in baculovirus assessed as substrate phosphorylation using fluorescence-labelled peptides as substrate at 8 uM after 90 mins by microfluidic peptide phosphorylation assay
[4] = target: Fibroblast growth factor receptor 3 (Homo sapiens) (UniProt P22607); assay: Inhibition of human FGFR3 catalytic domain expressed in baculovirus assessed as substrate phosphorylation using fluorescence-labelled peptides as substrate at 0.06 uM after 90 mins by microfluidic peptide phosphorylation assay
[5] = target: T2, cGMP-dependent protein kinase 1 (Homo sapiens) (UniProt Q13976); settings: 0.1 uM
T2 sequence (whole entry): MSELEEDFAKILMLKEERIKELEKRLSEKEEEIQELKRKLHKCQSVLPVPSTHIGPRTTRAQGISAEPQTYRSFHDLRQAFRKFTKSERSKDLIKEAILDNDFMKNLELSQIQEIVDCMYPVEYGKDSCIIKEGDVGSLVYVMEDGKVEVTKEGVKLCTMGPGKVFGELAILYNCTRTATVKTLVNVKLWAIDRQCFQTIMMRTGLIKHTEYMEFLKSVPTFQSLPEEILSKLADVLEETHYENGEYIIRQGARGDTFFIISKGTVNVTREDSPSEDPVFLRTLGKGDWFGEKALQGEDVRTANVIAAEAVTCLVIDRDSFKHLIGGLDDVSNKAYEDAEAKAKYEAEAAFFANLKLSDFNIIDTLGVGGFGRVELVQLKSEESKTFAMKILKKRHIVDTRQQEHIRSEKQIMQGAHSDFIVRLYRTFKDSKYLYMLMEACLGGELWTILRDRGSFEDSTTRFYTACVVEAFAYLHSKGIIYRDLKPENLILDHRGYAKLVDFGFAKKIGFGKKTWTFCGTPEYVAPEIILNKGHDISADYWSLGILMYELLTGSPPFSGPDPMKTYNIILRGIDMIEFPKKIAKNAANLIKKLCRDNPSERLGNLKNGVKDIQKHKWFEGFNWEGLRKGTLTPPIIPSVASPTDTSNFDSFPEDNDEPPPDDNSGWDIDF
Description: Inhibition of human full length PKG-1beta expressed in baculovirus assessed as substrate phosphorylation using fluorescence-labelled peptides as substrate at 0.1 uM after 90 mins by microfluidic peptide phosphorylation assay

[6] = target: Mitogen-activated protein kinase kinase kinase kinase 4 (Homo sapiens) (UniProt O95819); assay: Inhibition of human HGK catalytic domain expressed in baculovirus assessed as substrate phosphorylation using fluorescence-labelled peptides as substrate at 420 uM after 90 mins by microfluidic peptide phosphorylation assay
[7] = target: T3, Serine/threonine-protein kinase D2 (Homo sapiens) (UniProt Q9BZL6); assay: Inhibition of human full length PKD2 expressed in baculovirus assessed as substrate phosphorylation using fluorescence-labelled peptides as substrate at 9 uM after 90 mins by microfluidic peptide phosphorylation assay
T3 sequence (whole entry): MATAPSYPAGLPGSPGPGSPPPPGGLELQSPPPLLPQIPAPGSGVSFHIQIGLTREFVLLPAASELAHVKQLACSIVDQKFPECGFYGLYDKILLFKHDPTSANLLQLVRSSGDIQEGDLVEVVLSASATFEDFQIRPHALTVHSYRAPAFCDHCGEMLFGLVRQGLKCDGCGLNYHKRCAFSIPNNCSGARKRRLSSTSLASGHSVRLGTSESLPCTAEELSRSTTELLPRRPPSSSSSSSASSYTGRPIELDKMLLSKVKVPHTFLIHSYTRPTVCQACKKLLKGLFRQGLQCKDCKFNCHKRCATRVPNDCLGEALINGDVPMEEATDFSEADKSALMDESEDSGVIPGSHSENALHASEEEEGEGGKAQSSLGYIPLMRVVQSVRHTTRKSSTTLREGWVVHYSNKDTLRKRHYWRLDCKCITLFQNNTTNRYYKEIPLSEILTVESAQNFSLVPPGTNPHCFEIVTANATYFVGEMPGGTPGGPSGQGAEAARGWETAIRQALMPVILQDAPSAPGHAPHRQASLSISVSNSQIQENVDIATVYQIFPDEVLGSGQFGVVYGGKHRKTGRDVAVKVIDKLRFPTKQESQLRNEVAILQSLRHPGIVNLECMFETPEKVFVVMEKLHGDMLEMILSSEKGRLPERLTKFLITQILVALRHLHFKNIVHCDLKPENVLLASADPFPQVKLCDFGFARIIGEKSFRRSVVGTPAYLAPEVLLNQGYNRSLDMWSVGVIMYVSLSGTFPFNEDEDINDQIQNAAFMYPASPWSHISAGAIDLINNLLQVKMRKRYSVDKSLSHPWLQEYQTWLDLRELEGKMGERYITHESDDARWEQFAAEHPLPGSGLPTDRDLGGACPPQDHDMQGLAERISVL

[8] = target: RAC-alpha serine/threonine-protein kinase (Homo sapiens) (UniProt P31749); assay: Inhibition of human AKT1 catalytic domain expressed in baculovirus assessed as substrate phosphorylation using fluorescence-labelled peptides as substrate at 9 uM after 90 mins by microfluidic peptide phosphorylation assay
[9] = target: Ribosomal protein S6 kinase alpha-4 (Homo sapiens) (UniProt O75676); assay: Inhibition of human full length MSK2 expressed in baculovirus assessed as substrate phosphorylation using fluorescence-labelled peptides as substrate at 70 uM after 90 mins by microfluidic peptide phosphorylation assay
Chain of Ribosomal protein S6 kinase alpha-4 (Homo sapiens) (O75676 whole entry, looked up): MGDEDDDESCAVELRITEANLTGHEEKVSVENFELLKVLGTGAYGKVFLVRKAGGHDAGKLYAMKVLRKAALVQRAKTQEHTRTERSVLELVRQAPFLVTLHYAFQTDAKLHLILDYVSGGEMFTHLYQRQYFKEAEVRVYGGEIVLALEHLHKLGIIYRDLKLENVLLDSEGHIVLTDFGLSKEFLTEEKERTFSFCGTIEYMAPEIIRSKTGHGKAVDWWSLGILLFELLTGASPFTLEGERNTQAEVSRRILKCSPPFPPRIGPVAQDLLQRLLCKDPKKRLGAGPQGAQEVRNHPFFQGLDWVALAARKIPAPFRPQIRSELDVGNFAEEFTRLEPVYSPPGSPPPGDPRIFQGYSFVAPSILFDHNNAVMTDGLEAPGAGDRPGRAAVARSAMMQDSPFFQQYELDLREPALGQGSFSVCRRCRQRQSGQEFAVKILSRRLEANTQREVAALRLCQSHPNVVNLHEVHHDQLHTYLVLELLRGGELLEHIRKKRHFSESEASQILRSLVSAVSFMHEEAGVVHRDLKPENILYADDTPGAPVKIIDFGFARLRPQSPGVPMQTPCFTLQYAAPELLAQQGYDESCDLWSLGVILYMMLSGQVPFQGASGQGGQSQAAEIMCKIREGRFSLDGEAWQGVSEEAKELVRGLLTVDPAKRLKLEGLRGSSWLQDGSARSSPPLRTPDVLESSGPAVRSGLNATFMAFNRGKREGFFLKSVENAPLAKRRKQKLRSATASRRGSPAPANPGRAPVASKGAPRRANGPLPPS

Chain of Fibroblast growth factor receptor 3 (Homo sapiens) (P22607 23-806 limits assumed): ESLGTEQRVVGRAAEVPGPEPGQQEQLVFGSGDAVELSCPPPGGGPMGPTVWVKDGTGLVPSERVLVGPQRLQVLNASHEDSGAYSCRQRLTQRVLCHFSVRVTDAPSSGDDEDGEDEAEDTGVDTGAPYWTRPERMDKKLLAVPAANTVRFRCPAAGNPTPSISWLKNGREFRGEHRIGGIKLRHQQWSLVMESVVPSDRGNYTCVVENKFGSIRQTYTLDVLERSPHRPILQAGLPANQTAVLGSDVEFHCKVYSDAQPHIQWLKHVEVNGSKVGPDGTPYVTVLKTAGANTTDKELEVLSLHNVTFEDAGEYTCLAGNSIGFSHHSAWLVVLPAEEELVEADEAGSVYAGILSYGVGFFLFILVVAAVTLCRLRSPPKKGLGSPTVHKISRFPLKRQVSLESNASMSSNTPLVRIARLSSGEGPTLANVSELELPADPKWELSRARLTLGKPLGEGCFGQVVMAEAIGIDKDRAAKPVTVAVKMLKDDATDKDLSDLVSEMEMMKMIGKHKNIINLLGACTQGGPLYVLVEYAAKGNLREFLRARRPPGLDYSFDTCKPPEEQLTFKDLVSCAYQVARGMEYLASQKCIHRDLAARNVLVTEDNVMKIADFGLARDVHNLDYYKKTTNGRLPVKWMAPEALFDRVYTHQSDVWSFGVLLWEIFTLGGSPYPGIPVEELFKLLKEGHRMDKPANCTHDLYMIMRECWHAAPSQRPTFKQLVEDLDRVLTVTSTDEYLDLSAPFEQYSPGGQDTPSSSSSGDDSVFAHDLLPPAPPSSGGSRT
Chain of Mitogen-activated protein kinase kinase kinase kinase 4 (Homo sapiens) (O95819 2-1239 limits assumed): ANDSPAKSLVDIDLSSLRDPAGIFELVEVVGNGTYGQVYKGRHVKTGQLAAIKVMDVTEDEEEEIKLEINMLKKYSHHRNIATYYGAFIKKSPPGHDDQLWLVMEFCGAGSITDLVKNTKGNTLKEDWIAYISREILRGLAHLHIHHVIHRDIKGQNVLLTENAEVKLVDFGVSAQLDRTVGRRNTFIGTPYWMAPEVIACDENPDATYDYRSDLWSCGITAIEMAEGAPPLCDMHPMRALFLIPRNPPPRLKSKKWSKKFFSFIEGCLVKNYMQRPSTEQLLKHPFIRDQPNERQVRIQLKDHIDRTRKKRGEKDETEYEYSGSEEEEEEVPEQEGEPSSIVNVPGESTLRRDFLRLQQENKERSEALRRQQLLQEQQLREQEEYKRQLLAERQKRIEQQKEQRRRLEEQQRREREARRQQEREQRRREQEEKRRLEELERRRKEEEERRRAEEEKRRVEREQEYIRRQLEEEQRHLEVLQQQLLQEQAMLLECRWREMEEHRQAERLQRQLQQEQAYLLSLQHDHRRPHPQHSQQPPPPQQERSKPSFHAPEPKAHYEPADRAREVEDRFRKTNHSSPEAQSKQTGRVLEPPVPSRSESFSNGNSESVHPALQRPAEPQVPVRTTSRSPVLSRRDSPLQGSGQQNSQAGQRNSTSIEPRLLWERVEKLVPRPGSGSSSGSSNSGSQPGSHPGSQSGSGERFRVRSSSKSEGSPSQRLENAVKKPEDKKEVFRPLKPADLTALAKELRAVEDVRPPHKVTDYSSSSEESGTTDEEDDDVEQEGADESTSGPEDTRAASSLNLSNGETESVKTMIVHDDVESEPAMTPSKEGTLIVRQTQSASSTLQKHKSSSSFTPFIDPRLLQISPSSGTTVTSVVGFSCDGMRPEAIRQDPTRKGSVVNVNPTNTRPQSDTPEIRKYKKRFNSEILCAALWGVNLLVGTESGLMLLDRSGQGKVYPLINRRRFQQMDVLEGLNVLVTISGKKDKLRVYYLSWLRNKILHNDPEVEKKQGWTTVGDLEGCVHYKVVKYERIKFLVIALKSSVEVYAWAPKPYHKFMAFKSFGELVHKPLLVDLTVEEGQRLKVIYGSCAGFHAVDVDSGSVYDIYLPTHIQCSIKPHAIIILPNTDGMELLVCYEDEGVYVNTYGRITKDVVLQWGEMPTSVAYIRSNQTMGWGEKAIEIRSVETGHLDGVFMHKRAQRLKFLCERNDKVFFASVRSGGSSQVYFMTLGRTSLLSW
Chain of Platelet-derived growth factor receptor alpha (Homo sapiens) (P16234 whole entry, the tested form may be a part): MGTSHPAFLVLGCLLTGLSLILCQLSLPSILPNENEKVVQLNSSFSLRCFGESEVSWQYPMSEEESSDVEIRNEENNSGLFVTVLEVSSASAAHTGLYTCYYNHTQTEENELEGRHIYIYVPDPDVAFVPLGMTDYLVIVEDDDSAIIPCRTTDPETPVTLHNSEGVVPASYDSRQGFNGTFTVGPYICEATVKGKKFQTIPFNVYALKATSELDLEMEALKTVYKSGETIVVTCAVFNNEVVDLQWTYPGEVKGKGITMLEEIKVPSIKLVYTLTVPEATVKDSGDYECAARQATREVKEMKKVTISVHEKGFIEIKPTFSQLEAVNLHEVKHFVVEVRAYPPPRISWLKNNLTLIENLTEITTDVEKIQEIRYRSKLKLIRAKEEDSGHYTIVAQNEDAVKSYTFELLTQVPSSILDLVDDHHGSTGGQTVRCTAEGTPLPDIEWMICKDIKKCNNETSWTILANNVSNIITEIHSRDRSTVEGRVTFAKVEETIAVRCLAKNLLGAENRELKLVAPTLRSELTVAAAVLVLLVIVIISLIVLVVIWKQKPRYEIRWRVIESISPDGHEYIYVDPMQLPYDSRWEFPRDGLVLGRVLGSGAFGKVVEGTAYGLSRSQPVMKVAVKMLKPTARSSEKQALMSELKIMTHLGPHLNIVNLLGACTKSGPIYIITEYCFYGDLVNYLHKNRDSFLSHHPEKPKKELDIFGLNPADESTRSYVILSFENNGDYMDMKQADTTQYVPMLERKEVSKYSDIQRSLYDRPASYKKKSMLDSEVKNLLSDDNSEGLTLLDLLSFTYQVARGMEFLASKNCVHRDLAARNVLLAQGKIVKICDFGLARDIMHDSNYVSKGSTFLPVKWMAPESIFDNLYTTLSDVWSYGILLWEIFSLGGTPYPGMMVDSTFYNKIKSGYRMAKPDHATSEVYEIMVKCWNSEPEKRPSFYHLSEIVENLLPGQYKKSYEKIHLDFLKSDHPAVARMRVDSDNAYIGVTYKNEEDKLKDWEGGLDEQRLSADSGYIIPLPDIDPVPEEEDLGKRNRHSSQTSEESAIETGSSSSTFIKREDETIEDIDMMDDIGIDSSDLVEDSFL
Chain of RAC-alpha serine/threonine-protein kinase (Homo sapiens) (P31749 whole entry, the tested form may be a part): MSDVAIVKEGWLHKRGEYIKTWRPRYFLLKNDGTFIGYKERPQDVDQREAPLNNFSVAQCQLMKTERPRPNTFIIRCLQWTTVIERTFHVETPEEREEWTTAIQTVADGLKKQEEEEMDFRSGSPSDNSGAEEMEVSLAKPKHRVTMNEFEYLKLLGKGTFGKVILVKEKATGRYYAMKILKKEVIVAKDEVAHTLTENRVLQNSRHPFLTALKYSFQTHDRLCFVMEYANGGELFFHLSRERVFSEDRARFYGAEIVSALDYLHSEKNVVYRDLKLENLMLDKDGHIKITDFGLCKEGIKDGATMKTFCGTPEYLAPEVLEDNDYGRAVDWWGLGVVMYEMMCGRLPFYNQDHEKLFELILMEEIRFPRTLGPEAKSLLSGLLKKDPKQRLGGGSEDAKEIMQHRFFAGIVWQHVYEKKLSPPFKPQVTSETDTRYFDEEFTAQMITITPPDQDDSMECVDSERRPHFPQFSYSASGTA

Clc1ccc(C2(c3ccc(-c4ncnc5[nH]cnc45)cc3)CCNCC2)cc1
inhibition [1]: 0.5%
inhibition [2]: 4.5%

NCC1CCN(c2ncnc3[nH]ccc23)CC1
inhibition [3]: 56.5%

NC1(Cc2ccc(Cl)cc2)CCN(c2ncnc3[nH]ccc23)CC1
inhibition [4]: 0%

C[C@H](CN(C)C)Oc1nc(Nc2cc3cccc(Cl)c3cn2)cnc1C#N
inhibition [5]: 0%

c1nc(N2CCOCC2)c2nc[nH]c2n1
inhibition [6]: 78.5%

NCC1CN(c2ncnc3[nH]c4cnccc4c23)CCO1 (centres undefined)
inhibition [7]: 68%
inhibition [8]: 52%

CNCc1ccc(-c2ncnc3[nH]cnc23)cc1
inhibition [9]: 68%
